Test results published in patent US20250009844A1, “MATURATION OF MUCOSAL DEFENSE AND GUT/LUNG FUNCTION IN THE PRETERM INFANT” (Novozymes A/S, priority 2017, published 2025).
“Also recorded” adds a separate entry of the source. No end group written: not given here.

Tests used:
BALB/c mice = assay: Prophylactic treatment in murine house dust mite driven model of allergic asthma (Example 5); assay type: in vivo; conditions: for Increase of airway resistance (airway hyper responsiveness) / Decrease of pulmonary compliance: vs HDM challenged vehicle
Description: Treatment regime: Female 7-10 weeks old BALB/c mice were randomly allocated into 5study groups one day prior to study start and subcutaneously (SC) sensitized to house dust mite (100 μg HDM in 200 uL saline plus Freund's complete adjuvant in 0.9% saline). The mice were treated with hBD-2 orally and intranasally respectively at a dose of 1.2 mg/kg/day (0.4 mg/kg TID) starting on day 12 in the morning and continued TID at approximately 6 hours intervals. The last dose was administered on day 14 one hour prior to challenge. The total number of doses was 8 doses or a total of […] hBD-2.Mice were then intranasally (IN) challenged with HDM on day 14 (HDM 25 μg in 50 μL of saline) (FIG. 2).
Airway inflammation: At 48 hours post challenge, bronchoalveolar lavage was performed washing the lungs with 3 volumes of cold PBS (0.4; 0.3 and 0.3 mL, total 1 mL). Total and differential leucocyte cell counts were determined on an automated haematological analyser Sysmex XT-2000iV.
Lung function: Starting 48 hours after HDM challenge, measurements of lung resistance and lung compliance were carried out after methacholine challenge (3.125 MCH1; 6.25 MCH2; 12.5 MCH3 and 25 mg/mL MCH4) by anaesthetized, cannulated mice using DSI's Buxco Finepoint RC system. Data are represented as airway resistance at […] methacholine and as dose responsive curves. Lung sampling for cytokine analysis: After completion of every BAL, lungs were removed from the thorax, snap frozen in liquid nitrogen and stored frozen at −80 degrees Celsius until analysis of cytokine concentration of TNF-α, IL-4, IL-5, IL-6, IL-9, IL-13 and IL-33 in lung homogenate by ELISA.

[1] = Therapeutic high fat diet model in diet-induced obese mice, weight and fat percentage (Example 2); assay type: in vivo; conditions: HFD plus hBD-2 vs standard HFD
Excerpt: The overall design of the study is shown in FIG. 1, lower panel, “Therapeutic study”. Mice and diets. The experiment elucidates the effect of hBD-2 and HD5 on the microbiota in diet-induced obese mice. A run-in period of 13 weeks where mice were fed a very HFD (60% energy from fat) preceded the intervention. Only mice meeting the criteria of a minimum of 12 gram weight gain (approximately 50% of initial bodyweight) during the run-in period were included in the final analyses. […] They were exposed to all experimental tests, but excluded from the analyses.
Treatment regimen. Before the intervention all mice were MR scanned. Cages of mice were allocated to experimental groups based on their fat mass. All subsequent measures were paired with data from the same mouse before the intervention. A LFD (low fat diet) reference group was running in parallel. As controls for the intervention 2 additional groups were included: a) very HFD and b) LFD. Experimental mice stayed on the very HFD during the intervention. The mice were on the experimental diet for 10 weeks. They were co-housed throughout the experiment, 4 mice per cage, 3 cages per group. All tests ran over 3 days, 1 cage per group per day.

SCID mice = assay: Therapeutic, murine, 14 weeks, CD4+CD25+ T cell transfer induced colitis model (Example 4); assay type: in vivo
Excerpt: Treatment regime: 70 female BALB/c mice housed in groups of five per cage were allocated to 7 different treatment groups. Colitis was induced in SCID mice by transplantation of CD4+CD25 Tcells from BALB/c mice. Lymphocytes isolated from spleen and lymph nodes from BALB/c mice were subjected to negative selection of CD4+Tcells. Afterwards, CD4+CD25+cells were positively isolated by binding to the beads from the CD4+Tcell suspensions and the CD4+CD25—were collected from the supernatant. The animals were treated with hBD-2, 0.1 mg/kg s.c. once daily 86consecutive days from day 7 (OD); 1 mg/kg s.c. OD or 3 mg/kg s.c. OD;with mouse anti TNFa 100 μg/mouse s.c. twice weekly (enbrel); with dexamethasone 0.3 mg/kg intraperitoneally OD (dex); with PBS s.c. as vehicle from day 7 and 86 consecutive days (vehicle) or sham treated (sham).
Treatment groups: • 1. 0.1 mg/kg hBD-2, once daily subcutaneously (n=11) • 2. 1 mg/kg hBD-2, once daily subcutaneously (n=11) • 3. 3 mg/kg hBD-2, once daily subcutaneously (n=11) • 4. PBS (hBD-2 vehicle), once daily subcutaneously (n=11) • 5. 0.3 mg/kg Dexamethasone, once daily intraperitoneally (n=11) • 6. 100 μg/mouse soluble human 75-kilodalton TNF receptor linked to Fc portion of IgG1 (Enbrel), twice a week subcutaneously (n=11) • 7. Sham treated group (n=6)
Clinical assessment was based on body weight loss, stool consistency and presence of blood per rectum. The animals were sacrificed on day 95 and colon removed for assessment of weight and myeloperoxidase activity.

[2] = test system: microbiota of the intestine; assay: Prophylactic high fat diet murine model, 16S microbial analyses (Example 1); assay type: in vivo, mice
Excerpt: (§1) The overall experimental design is shown in FIG. 1, top panel “Prophylactic study”. Mice: Mice were housed in trios, 4 cages per group. Feed intake was registered daily just before lights were turned off at 6 pm. Individual mice were subjected to experimental procedures in altered order both group and cage wise. Mice were kept at room temperature under a 12-hour light/dark cycle at SPF standard conditions. Diets: For dosing, the average weight was estimated to be 25 grams per mouse. Mice eat approximately 3 grams of feed per mouse per day.
(§2) Treatment regime: Mice were fed either a high fat diet (HFD) or a low fat (LF) control diet. The HFD contained 4 subgroups; a) hBD-2, b) HD5, c) hBD-2/HD5 and d) standard HFD without supplementation of defensins. Defensin concentration was 1,2 mg hBD-2 per kg mouse per day. HD5 was given in equimolar concentration to hBD-2.
Microbial analyses were carried out to study the microbiota of the intestine. Longitudinal 16S characterization was conducted on 4 paired samples from 60 mice, 240 samples in total. Each mouse was sampled prior to diet change, 1 week post diet change, 4 weeks post diet change and at termination, thus ensuring a thorough characterization of the faecal microbiota as a result of defensin treatment.

[3] = Prophylactic high fat diet murine model, weight change (Example 1); assay type: in vivo, mice; conditions: HFD plus hBD-2 1,2 mg per kg per day in diet vs HFD reference group; 10 week study period; p=0.0028
Excerpt: as §1, §2

[4] = intranasal administration, not statistically significantly different from the control
[5] = same three dosing regimens, sacrifice day 95

With “human beta defensin 2 (GIGDPVTCLKSGAICHPVFCPRRYKQIGTCGLPGTKCCKKP; ends and bridges not checked; cysteine pairing not given here; listed as Homo sapiens) [hBD-2]” the “Increase of airway resistance (airway hyper responsiveness)” value (BALB/c mice; intranasal 0.4 mg/kg TID day 12 to day 14, 8 administrations) was “effectively inhibited increase of airway resistance”, the “Decrease of pulmonary compliance” value (BALB/c mice; intranasal 0.4 mg/kg TID day 12 to day 14) was “effectively inhibited” and the “IL-4 concentration in lung tissue homogenate” value (BALB/c mice; [4]) was “trend towards lowering”. The “IL-5 concentration in lung tissue homogenate” value (BALB/c mice; [4]) was “trend towards lowering”, the “IL-6 concentration in lung tissue homogenate” value (BALB/c mice; [4]) was “trend towards lowering” and the “IL-9 concentration in lung tissue homogenate” value (BALB/c mice; [4]) was “trend towards lowering”. The “IL-13 concentration in lung tissue homogenate” value (BALB/c mice; [4]) was “trend towards lowering”, the “TNF-α concentration in lung tissue homogenate” value (BALB/c mice; [4]) was “trend towards lowering” and the “Increase of airway resistance (airway hyper responsiveness)” value (BALB/c mice; oral 0.4 mg/kg TID day 12 to day 14, 8 administrations, 48 hours after HDM challenge) was “effectively inhibited increase of airway resistance”. The “Decrease of pulmonary compliance” value (BALB/c mice; oral 0.4 mg/kg TID day 12 to day 14) was “effectively inhibited”, the “IL-4 concentration in lung tissue homogenate” value (BALB/c mice; oral administration) was “complete normalization of cytokine concentrations” and the “IL-5 concentration in lung tissue homogenate” value (BALB/c mice; oral administration) was “complete normalization of cytokine concentrations”. For the same substance, the “IL-6 concentration in lung tissue homogenate” value (BALB/c mice; oral administration) was “complete normalization of cytokine concentrations”, the “IL-9 concentration in lung tissue homogenate” value (BALB/c mice; oral administration) was “complete normalization of cytokine concentrations” and the “IL-13 concentration in lung tissue homogenate” value (BALB/c mice; oral administration) was “complete normalization of cytokine concentrations”. For the same substance, the “TNF-α concentration in lung tissue homogenate” value (BALB/c mice; oral administration) was “complete normalization of cytokine concentrations”, the “Neutrophil counts in BALF” value (BALB/c mice; oral application, 48 hours post challenge) was “significantly inhibited neutrophil counts” and the Weight gain ([1]; first 4 weeks post dietary intervention, p=0.07) was “tended to gain less weight the first 4 weeks post dietary intervention, although not significant”. The Weight gain ([1]; from week 4 to the end of the study period, p=0.82) was “gained similar weight as the standard HFD group”, the “Clinical score (body weight loss, stool consistency, blood per rectum)” value (SCID mice; hBD-2 1 mg/kg s.c. OD, Dexamethasone 0.3 mg/kg i.p. OD, Enbrel 100 μg/mouse s.c. twice weekly, from day 7) was “statistically significant and similar effect on clinical score; also recorded: on par with 100 μg/mouse anti TNF-α s.c. twice weekly (Enbrel) and 0.3 mg/kg dexamethasone” and the Colon weight (SCID mice; [5]) was “statistically significant and similar effect on colon weight; also recorded: on par with 100 μg/mouse anti TNF-α s.c. twice weekly (Enbrel) and 0.3 mg/kg dexamethasone”. For the same substance, the “Myeloperoxidase activity in intestinal tissue” value (SCID mice; [5]) was “statistically significant and similar effect; also recorded: on par with 100 μg/mouse anti TNF-α s.c. twice weekly (Enbrel) and 0.3 mg/kg dexamethasone”, the “Abundance of Barnesiella” value ([2]; colon, prophylactic treatment, p<0.03) was “statistically significant increase in abundance of Barnesiella” and the “Abundance of Lactobacillus” value ([2]; colon, prophylactic treatment, p=0.1) was “trend towards lower abundance of Lactobacillus”. The “Microbial presence and abundance (unifrac, genus analysis)” value ([2]; prophylactic oral defensin in HFD, 1,2 mg hBD-2 per kg per day, HD5 equimolar, mix 50%+50%) was “affected primarily the microbial presence” and the Weight gain [3] was “gained significantly less weight than the HFD reference group”.
